Legend:
Assay in all cases: AUC of viability dose-response curve (% viability x log10 dose units); higher = less sensitive
Details in all cases: 48 h
NOMO1 = system: NOMO1
How it was run: (§1)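 Leukemia cells adapted to each medium (500 or 1000 cells/well, 1536-well plates) were exposed to library compounds in DMSO for 48 h at 37°C at 11 threefold doses, 47 μM to 0.79 nM. Luminescence by CellTiter-Glo One was normalised per plate to DMSO and cell-free wells, then fitted with a four-parameter log-logistic curve on log10 dose. Curves above full viability were scaled and quality-control failures removed before area under the curve was integrated by trapezoidal rule.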

SEM cells = system: SEM cells
How it was run: as §1

P12-Ichikawa = system: P12-Ichikawa
How it was run: as §1

[1] = RPMI 5 mM glucose + 10% dialyzed FBS

Row | SMILES | AUC of viability dose-response curve (NOMO1; HPLM + 10% dialyzed FBS) | AUC of viability dose-response curve (NOMO1; RPMI 5 mM glucose + 10% FBS) | AUC of viability dose-response curve (NOMO1; [1]) | AUC of viability dose-response curve (SEM cells; HPLM + 10% dialyzed FBS) | AUC of viability dose-response curve (SEM cells; RPMI 5 mM glucose + 10% FBS) | AUC of viability dose-response curve (SEM cells; [1]) | AUC of viability dose-response curve (P12-Ichikawa; HPLM + 10% dialyzed FBS) | AUC of viability dose-response curve (P12-Ichikawa; RPMI 5 mM glucose + 10% FBS) | AUC of viability dose-response curve (P12-Ichikawa; [1])
1 | CO/N=C(/C(=O)N[C@@H]1C(=O)N2C(C(=O)O)=C(Cn3ccc(=N)n3CCO)CS[C@H]12)c1csc(N)n1 | 421 | 446 | 459 | 413 | 461 | 467 | 460 | 452 | 463
2 | Cc1ccc(-n2nc(C(C)(C)C)cc2NC(=O)Nc2ccc(OCCN3CCOCC3)c3ccccc23)cc1 | 474 | 460 | 471 | 403 | 399 | 398 | 477 | 463 | 473
3 | O=C1c2c(O)cccc2[C@H]([C@@H]2O[C@H](CO)[C@@H](O)[C@H](O)[C@H]2O)c2cc(CO)cc(O)c21 | 455 | 404 | 431 | 449 | 431 | 441 | 467 | 467 | 465
4 | O=C(NC1CCNCC1)c1n[nH]cc1NC(=O)c1c(Cl)cccc1Cl | 321 | 332 | 324 | 319 | 323 | 326 | 345 | 341 | 357
5 | COc1cc2c(Nc3ccc(NC(=O)c4ccccc4)cc3)ncnc2cc1OCCCN1CCOCC1 | 456 | 417 | 425 | 396 | 389 | 385 | 383 | 390 | 386
6 | NC(=O)N1c2ccccc2CC(=O)c2ccccc21 | 408 | 444 | 466 | 466 | 427 | 389 | 461 | 456 | 464
7 | O=C(O)c1ccc2cc(-c3ccc(O)c(C45CC6CC(CC(C6)C4)C5)c3)ccc2c1 | 323 | 330 | 311 | 287 | 282 | 266 | 299 | 285 | 277
8 | CC(C)(C)OC(=O)CN(Cc1ccc(Cl)cc1)Cc1ccc([N+](=O)[O-])s1 | 441 | 436 | 464 | 449 | 454 | 436 | 456 | 443 | 429
